Results published in US10316049B2, “Tank-binding kinase inhibitor compounds” (Gilead Sciences, Inc., priority 2015, dated 2019).

What was measured:
IKKε = target: T1, IKKε (Homo sapiens, UniProt Q14164); test: TR-FRET enzymatic activity assay, IKKε; format: biochemical; settings: read-out: IKKϵ IC50; further: full length recombinant IKKε at 0.3 nM
T1 construct: TBK1 and IKKε were expressed and purified as full length recombinant proteins; made in house
T1 sequence (Q14164 1-716): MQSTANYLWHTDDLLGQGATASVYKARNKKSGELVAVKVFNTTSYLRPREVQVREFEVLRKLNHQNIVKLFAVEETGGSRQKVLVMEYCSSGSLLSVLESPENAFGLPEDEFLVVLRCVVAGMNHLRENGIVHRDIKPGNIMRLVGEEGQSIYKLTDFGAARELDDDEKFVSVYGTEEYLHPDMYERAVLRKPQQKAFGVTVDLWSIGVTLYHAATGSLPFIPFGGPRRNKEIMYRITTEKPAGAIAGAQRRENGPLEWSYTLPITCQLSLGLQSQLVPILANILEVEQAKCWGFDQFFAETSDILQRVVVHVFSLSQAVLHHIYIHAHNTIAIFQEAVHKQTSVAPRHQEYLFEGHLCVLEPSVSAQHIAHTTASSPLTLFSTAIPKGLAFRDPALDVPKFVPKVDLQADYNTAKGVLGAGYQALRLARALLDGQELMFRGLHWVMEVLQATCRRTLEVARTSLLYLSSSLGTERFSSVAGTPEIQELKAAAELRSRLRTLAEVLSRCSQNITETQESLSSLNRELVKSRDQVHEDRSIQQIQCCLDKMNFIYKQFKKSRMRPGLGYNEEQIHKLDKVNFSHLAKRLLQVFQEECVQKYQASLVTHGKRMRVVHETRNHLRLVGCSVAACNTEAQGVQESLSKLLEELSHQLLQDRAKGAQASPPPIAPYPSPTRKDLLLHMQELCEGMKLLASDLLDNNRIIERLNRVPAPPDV
Procedure: (§1) Biological Assay for TBK1 and IKKε:
Enzymatic activity of IKKε and TBK1 was measured using a homogeneous time resolved fluorescence resonance energy transfer (TR-FRET) assay that monitors enzyme dependent phosphorylation of a biotinylated serine/threonine peptide substrate. […] TBK1 and IKKε were expressed and purified as full length recombinant proteins. Detection reagents for the assay were purchased from Cisbio. […] After an assay reaction time of 240 minutes at 25° C., reactions were terminated with EDTA.
(§2) Amount of phosphorylated peptide was determined by the addition of 125 nM streptavidin XL665 and europium cryptate labeled anti-phospho monoclonal antibody and the resulting TR-FRET signal was recorded on an Envision plate reader (Ex: 340 nm; Em: 615/665 nm; 100 μs delay and 200 μs read window). Data was normalized based on a positive (1 μM Staurosporine) and negative (DMSO) controls and IC50 values calculated from the fit of the dose-response curves to a four-parameter equation. All IC50 values represent geometric mean values of a minimum of four determinations.

TBK1 = target: T2, TBK1 (Homo sapiens, UniProt Q9UHD2); test: TR-FRET enzymatic activity assay, TBK1; format: biochemical; further: full length recombinant TBK1 at 2.5 nM
T2 construct: TBK1 and IKKε were expressed and purified as full length recombinant proteins; made in house
T2 sequence (Q9UHD2 1-729): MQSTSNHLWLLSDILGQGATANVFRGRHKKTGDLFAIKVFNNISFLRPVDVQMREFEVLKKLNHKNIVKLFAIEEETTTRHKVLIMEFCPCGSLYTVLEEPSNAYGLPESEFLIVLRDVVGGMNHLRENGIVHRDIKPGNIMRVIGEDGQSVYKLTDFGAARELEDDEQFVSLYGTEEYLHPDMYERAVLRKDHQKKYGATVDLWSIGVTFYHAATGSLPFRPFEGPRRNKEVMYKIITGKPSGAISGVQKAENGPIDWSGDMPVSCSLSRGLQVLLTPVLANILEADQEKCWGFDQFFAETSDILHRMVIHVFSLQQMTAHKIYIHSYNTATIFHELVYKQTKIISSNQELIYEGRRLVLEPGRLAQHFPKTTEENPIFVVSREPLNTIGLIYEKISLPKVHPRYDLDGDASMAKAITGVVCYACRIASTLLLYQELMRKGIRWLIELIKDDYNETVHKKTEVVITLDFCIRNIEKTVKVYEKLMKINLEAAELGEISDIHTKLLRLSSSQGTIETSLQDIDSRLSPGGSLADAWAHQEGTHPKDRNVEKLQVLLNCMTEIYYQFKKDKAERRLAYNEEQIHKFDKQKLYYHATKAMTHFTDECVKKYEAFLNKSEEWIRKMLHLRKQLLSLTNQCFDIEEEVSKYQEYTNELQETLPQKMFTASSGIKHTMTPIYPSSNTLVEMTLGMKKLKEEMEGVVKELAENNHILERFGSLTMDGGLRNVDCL
Procedure: as §1
Enzymatic activity of IKKε and TBK1 was measured using a homogeneous time resolved fluorescence resonance energy transfer (TR-FRET) assay that monitors enzyme dependent phosphorylation of a biotinylated serine/threonine peptide substrate. An increase in the amount of phosphorylated peptide results in an increase in TR-FRET signal. TBK1 and IKKε were expressed and purified as full length recombinant proteins. Detection reagents for the assay were purchased from Cisbio. […] After an assay reaction time of 240 minutes at 25° C., reactions were terminated with EDTA.
as §2, with “determinations. These assays generally produced results within 3-fold of the reported mean.” for “determinations.”

SMILES	IC50 (IKKε)	IC50 (TBK1)
Cn1cc([C@@H]2C[C@H]2C(=O)Nc2cc(-c3ccc(O[C@H]4CCN(C(=O)CO)C[C@H]4F)c(C#N)c3)ncn2)cn1 [Example 143, (1,2-Trans)-N-(6-(3-cyano-4-(((3R,4S)-3-fluoro-1-(2-hydroxyacetyl)piperidin-4-yl)oxy)phenyl)pyrimidin-4-yl)-2-(1-methyl-1H-pyrazol-4-yl)cyclopropane-1-carboxamide]	44.3 nM	19.9 nM
CO[C@H]1CCN(c2ccc(-c3ccnc(NC(=O)C4CC4)c3)cc2C#N)C1 [Example 94, (S)—N-(4-(3-cyano-4-(3-methoxypyrrolidin-1-yl)phenyl)pyridin-2-yl)cyclopropanecarboxamide]	195 nM	120 nM
CO[C@@H]1CCN(c2ccc(-c3ccnc(NC(=O)C4CC4)c3)cc2C#N)C1 [Example 97, (R)—N-(4-(3-cyano-4-(3-methoxypyrrolidin-1-yl)phenyl)pyridin-2-yl)cyclopropanecarboxamide]	477 nM	270 nM
N#Cc1cc(-c2ccnc(NC(=O)C3CC3c3nc[nH]n3)c2)ccc1O[C@H]1CCN(C(=O)CO)C[C@H]1F (stereo partly drawn) [Example 76, N-(4-(3-Cyano-4-(((3R,4S)-3-fluoro-1-(2-hydroxyacetyl)piperidin-4-yl)oxy)phenyl)pyridin-2-yl)-2-(1H-1,2,4-triazol-3-yl)cyclopropane-1-carboxamide]	357 nM	256 nM
Cn1cnc(C2CC2C(=O)Nc2cc(-c3ccc(O[C@H]4CCN(C(=O)CO)C[C@H]4F)c(C#N)c3)ccn2)n1 (stereo partly drawn) [Example 145, N-(4-(3-Cyano-4-(((3R,4S)-3-fluoro-1-(2-hydroxyacetyl)piperidin-4-yl)oxy)phenyl)pyridin-2-yl)-2-(1-methyl-1H-1,2,4-triazol-3-yl)cyclopropane-1-carboxamide]	> 1000 nM	> 1000 nM
Cn1cc([C@@H]2C[C@H]2C(=O)Nc2cc(-c3ccc(OC4CCOCC4)c(C#N)c3)ccn2)cn1 (relative stereo) [Example 120, (1,2-Trans)-N-(4-(3-cyano-4-((tetrahydro-2H-pyran-4-yl)oxy)phenyl)pyridin-2-yl)-2-(1-methyl-1H-pyrazol-4-yl)cyclopropane-1-carboxamide]	181 nM	29.1 nM
N#Cc1cc(-c2ccnc(NC(=O)[C@H]3C[C@H]3F)c2)ccc1N1CCCC1 [Example 64, (1R,2R)—N-(4-(3-cyano-4-(pyrrolidin-1-yl)phenyl)pyridin-2-yl)-2-fluorocyclopropane-1-carboxamide]	578 nM	85.3 nM
C[C@@H]1C[C@H]1C(=O)Nc1cc(-c2ccc(O[C@H]3CCN(C(=O)CO)C[C@H]3F)c(C#N)c2)ccn1 [Example 72, (1R,2R)—N-(4-(3-cyano-4-(((3R,4S)-3-fluoro-1-(2-hydroxyacetyl)piperidin-4-yl)oxy)phenyl)pyridin-2-yl)-2-methylcyclopropane-1-carboxamide]	43.7 nM	16.5 nM
N#Cc1cc(-c2ccnc(NC(=O)[C@@H]3C[C@H]3C(=O)N3CC(O)C3)c2)ccc1OC1CCOCC1 (relative stereo) [Example 45, (1,2-trans)-N-(4-(3-cyano-4-((tetrahydro-2H-pyran-4-yl)oxy)phenyl)pyridin-2-yl)-2-(3-hydroxyazetidine-1-carbonyl)cyclopropane-1-carboxamide]	427 nM	444 nM
Cn1cc([C@H]2C[C@@H]2C(=O)Nc2cc(-c3ccc(O[C@H]4CCN(C(=O)CO)CC4(F)F)c(C#N)c3)ncn2)cn1 [Example 138, (1S,2S)—N-(6-(3-cyano-4-(((S)-3,3-difluoro-1-(2-hydroxyacetyl)piperidin-4-yl)oxy)phenyl)pyrimidin-4-yl)-2-(1-methyl-1H-pyrazol-4-yl)cyclopropane-1-carboxamide]		5.9 nM
Cn1cc([C@@H]2C[C@H]2C(=O)Nc2cc(-c3ccc(O[C@H]4CCN(C(=O)CO)CC4(F)F)c(C#N)c3)ncn2)cn1 [Example 128, (1,2-Trans)-N-(6-(3-cyano-4-(((S)-3,3-difluoro-1-(2-hydroxyacetyl)piperidin-4-yl)oxy)phenyl)pyrimidin-4-yl)-2-(1-methyl-1H-pyrazol-4-yl)cyclopropane-1-carboxamide]		7.2 nM

Next, values leading:

IC50 (IKKε)	IC50 (TBK1)	SMILES
266 nM	44.1 nM	CCC[C@H]1C[C@@H]1C(=O)Nc1cc(-c2ccc(OC3CCOCC3)c(C#N)c2)ccn1 (relative stereo) [Example 91, (1,2-trans)-N-(4-(3-cyano-4-((tetrahydro-2H-pyran-4-yl)oxy)phenyl)pyridin-2-yl)-2-propylcyclopropane-1-carboxamide]
298 nM	48.5 nM	N#Cc1cc(-c2cc(NC(=O)C3CC3)ncn2)ccc1OC1CCOCC1 [Example 6, N-(6-(3-cyano-4-((tetrahydro-2H-pyran-4-yl)oxy)phenyl)pyrimidin-4-yl)cyclopropanecarboxamide]
121 nM	37.3 nM	N#CCC(=O)N1CC[C@H](Oc2ccc(-c3ccnc(NC(=O)C4CC4)c3)cc2C#N)[C@H](F)C1 [Example 12, N-(4-(3-cyano-4-(((3R,4S)-1-(2-cyanoacetyl)-3-fluoropiperidin-4-yl)oxy)phenyl)pyridin-2-yl)cyclopropanecarboxamide]
87.8 nM	34.2 nM	COCC(=O)N1CC[C@H](Oc2ccc(-c3ccnc(NC(=O)[C@H]4C[C@@H]4F)c3)cc2C#N)[C@H](F)C1 [Example 68, (1,2-trans)-N-(4-(3-Cyano-4-(((3R,4S)-3-fluoro-1-(2-methoxyacetyl)piperidin-4-yl)oxy)phenyl)pyridin-2-yl)-2-fluorocyclopropane-1-carboxamide]
73.2 nM	96.3 nM	CC(O)[C@@H]1C[C@H]1C(=O)Nc1cc(-c2ccc(OC3CCOCC3)c(C#N)c2)ccn1 (stereo partly drawn) [Example 39, (1,2-trans)-N-(4-(3-cyano-4-((tetrahydro-2H-pyran-4-yl)oxy)phenyl)pyridin-2-yl)-2-(-1-hydroxyethyl)cyclopropane-1-carboxamide]
	21.4 nM	Cn1cc([C@@H]2C[C@H]2C(=O)Nc2cc(-c3ccc(O[C@H]4CCN(C(=O)CO)CC4(F)F)c(C#N)c3)ncn2)cn1 [Example 137, (1R,2R)—N-(6-(3-cyano-4-(((S)-3,3-difluoro-1-(2-hydroxyacetyl)piperidin-4-yl)oxy)phenyl)pyrimidin-4-yl)-2-(1-methyl-1H-pyrazol-4-yl)cyclopropane-1-carboxamide]
